Experimental data published in patent publication US20190374533A1, “COMPOUNDS AND METHODS FOR INHIBITING NHE-MEDIATED ANTIPORT IN THE TREATMENT OF DISORDERS ASSOCIATED WITH FLUID RETENTION OR SALT OVERLOAD AND GASTROINTESTINAL TRACT DISORDERS” (Ardelyx, Inc., priority 2008, published 2019).

System: not listed separately
Experiment: Determination of compound Cmax and AUC
Type: in vivo
Settings: rat; Sprague-Dawley rats, oral gavage, serum 0.5-4 h; actual oral dose (mg/kg) given
Procedure: Sprague-Dawley rats were orally gavaged with test article (2.5 mg/kg) and serum was collected at 0.5, 1, 2 and 4 h. Serum samples were treated with acetonitrile, precipitated proteins removed by centrifugation and supernatants analyzed by LC/MS/MS and compared against a standard curve to determine compound concentration. All compounds were orally dosed at the dosage shown, and pharmacokinetic parameters determined as described in the text.

Structure (SMILES) | AUC [ng·h/mL] | Cmax [ng/mL]
CN1Cc2c(Cl)cc(Cl)cc2C(c2cccc(S(=O)(=O)NCCOCCOCCOCCNC(=O)CCC(=O)NCCOCCOCCOCCNS(=O)(=O)c3cccc(C4CN(C)Cc5c(Cl)cc(Cl)cc54)c3)c2)C1 (stereo not shown) [Example 181, N1,N4-bis(2-(2-(2-(2-(3-(6,8-dichloro-2-methyl-1,2,3,4-tetrahydroisoquinolin-4-yl)phenylsulfonamido)ethoxy)ethoxy)ethoxy)ethyl)succinamide] | < 2 | < 2
CN1Cc2c(Cl)cc(Cl)cc2C(c2cccc(S(=O)(=O)NCCOCCOCCOCCNC(=O)C(=O)NCCOCCOCCOCCNS(=O)(=O)c3cccc(C4CN(C)Cc5c(Cl)cc(Cl)cc54)c3)c2)C1 (stereo not shown) [Example 180, N1,N2-bis(2-(2-(2-(2-(3-(6,8-dichloro-2-methyl-1,2,3,4-tetrahydroisoquinolin-4-yl)phenylsulfonamido)ethoxy)ethoxy)ethoxy)ethyl)oxalamide] | < 19 | < 10
CN1Cc2c(Cl)cc(Cl)cc2C(c2cccc(S(=O)(=O)NCCOCCOCCNC(=O)NCCOCCOCCNS(=O)(=O)c3cccc(C4CN(C)Cc5c(Cl)cc(Cl)cc54)c3)c2)C1 (stereo not shown) [Example 235, N,N′-(10-oxo-3,6,14,17-tetraoxa-9,11-diazanonadecane-1,19-diyl)bis(3-(6,8-dichloro-2-methyl-1,2,3,4-tetrahydroisoquinolin-4-yl)benzenesulfonamide)] | < 5 | < 5
CN1Cc2c(Cl)cc(Cl)cc2C(c2cccc(NC(=O)NCCOCCOCCOCCNC(=O)C(O)C(O)C(=O)NCCOCCOCCOCCNC(=O)Nc3cccc(C4CN(C)Cc5c(Cl)cc(Cl)cc54)c3)c2)C1 (stereo not shown) [Example 174, N1,N4-bis(1-(3-(6,8-dichloro-2-methyl-1,2,3,4-tetrahydroisoquinolin-4-yl)phenylamino)-1-oxo-5,8,11-trioxa-2-azatridecan-13-yl)-2,3-dihydroxysuccinamide] | < 5 | < 5.4
CN1Cc2c(Cl)cc(Cl)cc2C(c2cccc(NC(=O)CCOCCOCCOCCNC(=O)[C@H](O)[C@@H](O)C(=O)NCCOCCOCCOCCC(=O)Nc3cccc(C4CN(C)Cc5c(Cl)cc(Cl)cc54)c3)c2)C1 (stereo partly drawn) [Example 179, (2R,3R)—N1,N4-bis(2-(2-(2-(3-(3-(6,8-dichloro-2-methyl-1,2,3,4-tetrahydroisoquinolin-4-yl)phenylamino)-3-oxopropoxy)ethoxy)ethoxy)ethyl)-2,3-dihydroxysuccinamide] | < 35 | < 16

Other lines, results leading:

AUC [ng·h/mL] | Cmax [ng/mL] | Structure (SMILES)
< 4 | < 3.5 | CN1Cc2c(Cl)cc(Cl)cc2C(c2cccc(S(=O)(=O)NCCNC(=O)C(O)C(O)C(=O)NCCNS(=O)(=O)c3cccc(C4CN(C)Cc5c(Cl)cc(Cl)cc54)c3)c2)C1 (stereo not shown) [Example 169, N1,N4-bis(2-(3-(6,8-dichloro-2-methyl-1,2,3,4-tetrahydroisoquinolin-4-yl)phenylsulfonamido)ethyl)-2,3-dihydroxysuccinamide]
< 5 | < 5 | CN1Cc2c(Cl)cc(Cl)cc2C(c2cccc(S(=O)(=O)NCCOCCOCCOCCOCCOCCOCCOCCOCCOCCOCCN)c2)C1 (stereo not shown) [Example 214, N-(32-amino-3,6,9,12,15,18,21,24,27,30-decaoxadotriacontyl)-3-(6,8-dichloro-2-methyl-1,2,3,4-tetrahydroisoquinolin-4-yl)benzenesulfonamide]
< 5 | < 3 | CN1Cc2c(Cl)cc(Cl)cc2[C@@H](c2ccc(S(=O)(=O)NCCOCCOCCOCCNC(=O)C(O)C(O)C(=O)NCCOCCOCCOCCNS(=O)(=O)c3ccc([C@H]4CN(C)Cc5c(Cl)cc(Cl)cc54)cc3)cc2)C1 (single isomer, unassigned) [Example 226, N1,N4-bis(2-(2-(2-(2-(4-((R or S)-6,8-dichloro-2-methyl-1,2,3,4-tetrahydroisoquinolin-4-yl)phenylsulfonamido)ethoxy)ethoxy)ethoxy)ethyl)-2,3-dihydroxysuccinamide]
242 | 93 | C/C(=C\c1cc(F)c(Oc2ccc(S(=O)(=O)NCCN3CCN(CCNS(=O)(=O)c4ccc(Oc5c(F)cc(/C=C(\C)C(=O)N=C(N)N)cc5F)cc4)CC3)cc2)c(F)c1)C(=O)N=C(N)N [Example 50, N,N′-(2,2′-(piperazine-1,4-diyl)bis(ethane-2,1-diyl))di-((E)-N-(diaminomethylene)-3-(3,5-difluoro-4-(4-sulfamoylphenoxy)phenyl)-2-methylacrylamide)]
< 2 | < 2 | CN1Cc2c(Cl)cc(Cl)cc2[C@H](c2cccc(S(=O)(=O)NCCOCCOCCOCCNC(=O)Nc3ccc(NC(=O)NCCOCCOCCOCCNS(=O)(=O)c4cccc([C@@H]5CN(C)Cc6c(Cl)cc(Cl)cc65)c4)cc3)c2)C1 (single isomer, unassigned) [Example 245, (S or R)—N,N′-(1,1′-(1,4-phenylenebis(azanediyl))bis(1-oxo-5,8,1-trioxa-2-azatridecane-13,1-diyl))bis(3-((S or R)-6,8-dichloro-2-methyl-1,2,3,4-tetrahydroisoquinolin-4-yl)benzenesulfonamide)]
< 5 | < 3.4 | CN1Cc2c(Cl)cc(Cl)cc2C(c2ccc(S(=O)(=O)NCCOCCOCCNC(=O)c3cc(N)cc(C(=O)NCCOCCOCCNS(=O)(=O)c4ccc(C5CN(C)Cc6c(Cl)cc(Cl)cc65)cc4)c3)cc2)C1.O=C(O)C(F)(F)F.O=C(O)C(F)(F)F.O=C(O)C(F)(F)F (stereo not shown) [Example 186, 5-amino-N1,N3-bis(2-(2-(2-(4-(6,8-dichloro-2-methyl-1,2,3,4-tetrahydroisoquinolin-4-yl)phenylsulfonamido)ethoxy)ethoxy)ethyl)isophthalamide tris(2,2,2-trifluoroacetate)]
< 1 | < 1 | CN1Cc2c(Cl)cc(Cl)cc2C(c2cccc(S(=O)(=O)NCCOCCOCCNC(=O)[C@H](O)[C@@H](O)C(=O)NCCOCCOCCNS(=O)(=O)c3cccc(C4CN(C)Cc5c(Cl)cc(Cl)cc54)c3)c2)C1 (stereo partly drawn) [Example 218, (2R,3R)—N1,N4-bis(2-(2-(2-(3-(6,8-dichloro-2-methyl-1,2,3,4-tetrahydroisoquinolin-4-yl)phenylsulfonamido)ethoxy)ethoxy)ethyl)-2,3-dihydroxysuccinamide]
< 2 | < 2 | CN1Cc2c(Cl)cc(Cl)cc2C(c2cccc(S(=O)(=O)NCCOCCOCCOCCNC(=O)C(O)C(O)C(=O)NCCOCCOCCOCCNS(=O)(=O)c3cccc(C4CN(C)Cc5c(Cl)cc(Cl)cc54)c3)c2)C1 (stereo not shown) [Example 172, N1,N4-bis(2-(2-(2-(2-(3-(6,8-dichloro-2-methyl-1,2,3,4-tetrahydroisoquinolin-4-yl)phenylsulfonamido)ethoxy)ethoxy)ethoxy)ethyl)-2,3-dihydroxysuccinamide]
< 2 | < 2 | CN(CC(=O)NCCOCCOCCNS(=O)(=O)c1ccc(C2CN(C)Cc3c(Cl)cc(Cl)cc32)cc1)CC(=O)NCCOCCOCCNS(=O)(=O)c1ccc(C2CN(C)Cc3c(Cl)cc(Cl)cc32)cc1 (stereo not shown) [Example 185, 2,2′-(methylazanediyl)bis(N-(2-(2-(2-(4-(6,8-dichloro-2-methyl-1,2,3,4-tetrahydroisoquinolin-4-yl)phenylsulfonamido)ethoxy)ethoxy)ethyl)acetamide) tris(2,2,2-trifluoroacetate)]

Target: T1, rat NHE-3 (Rattus norvegicus, UniProt P26433)
T1 construct: expressed in transfected cells; host or cells: Opossum kidney (OK) cells (ATCC), electroporated
Experiment: Cell-based assay of NHE-3 activity (Pharmacological Test Example 1)
Settings: OK cells expressing rat NHE-3; 0-30 uM test compound, 5 uM EIPA
Procedure: Rat NHE-3-mediated Na^+-dependent H^+ antiport was measured using a modification of the pH sensitive dye method originally reported by Tsien (Proc. Natl. Acad. Sci. USA. (1984) 81(23): 7436-7440). Opossum kidney (OK) cells were obtained from the ATCC and propagated per their instructions. The rat NHE-3 gene was introduced into OK cells via electroporation, seeded into 96 well plates and grown overnight. Medium was aspirated from the wells, cells were washed twice with NaCl-HEPES buffer (100 mM NaCl, 50 mM HEPES, 10 mM glucose, 5 mM KCl, 2 mM CaCl2, 1 mM MgCl2, pH 7.4), then incubated for 30 min at room temperature with NH4Cl-HEPES buffer (20 mM NH4Cl, 80 mM NaCl, 50 mM HEPES, 5 mM KCl, 2 mM CaCl2), 1 mM MgCl2, pH 7.4) containing 5 uM BCECF-AM (Invitrogen). Cells were washed twice with Ammonium free, Nat-free HEPES (100 mM choline, 50 mM HEPES, 10 mM glucose, 5 mM KCl, 2 mM CaCl2), 1 mM MgCl2, pH 7.4) and incubated in the same buffer for 10 minutes at room temperature to lower intracellular pH. […] Initial rates were plotted as the average 3-6 replicates, and pIC50 values were estimated using GraphPad Prism.

T1 sequence (P26433 29-831): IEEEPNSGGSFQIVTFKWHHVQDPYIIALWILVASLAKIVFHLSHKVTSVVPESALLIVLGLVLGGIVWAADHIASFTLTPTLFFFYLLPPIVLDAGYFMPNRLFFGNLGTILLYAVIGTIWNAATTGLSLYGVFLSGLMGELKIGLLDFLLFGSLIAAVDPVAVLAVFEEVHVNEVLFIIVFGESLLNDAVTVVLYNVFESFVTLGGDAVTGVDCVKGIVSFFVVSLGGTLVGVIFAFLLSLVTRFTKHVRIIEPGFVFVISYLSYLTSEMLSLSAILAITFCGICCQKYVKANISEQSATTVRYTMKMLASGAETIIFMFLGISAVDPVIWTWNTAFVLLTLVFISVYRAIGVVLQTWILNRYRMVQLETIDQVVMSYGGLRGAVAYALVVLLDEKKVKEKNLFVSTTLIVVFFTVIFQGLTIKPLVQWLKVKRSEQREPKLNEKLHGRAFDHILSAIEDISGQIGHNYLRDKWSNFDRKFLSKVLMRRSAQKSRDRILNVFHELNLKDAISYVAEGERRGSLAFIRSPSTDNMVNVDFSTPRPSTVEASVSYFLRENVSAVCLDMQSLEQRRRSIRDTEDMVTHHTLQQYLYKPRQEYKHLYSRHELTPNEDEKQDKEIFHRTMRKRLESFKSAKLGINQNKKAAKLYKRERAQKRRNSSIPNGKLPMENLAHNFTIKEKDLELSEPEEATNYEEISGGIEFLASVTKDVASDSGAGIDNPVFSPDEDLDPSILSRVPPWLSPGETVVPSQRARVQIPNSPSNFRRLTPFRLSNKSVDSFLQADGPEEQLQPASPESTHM

rat NHE-3 Average pIC50 | Structure (SMILES)
6 to 7 | CN1Cc2c(Cl)cc(Cl)cc2C(c2cccc(S(=O)(=O)NCCOCCOCCOCCNC(=O)NCCOCCOCCOCCNS(=O)(=O)c3cccc(C4CN(C)Cc5c(Cl)cc(Cl)cc54)c3)c2)C1 (stereo not shown) [Example 100, N,N′-(13-oxo-3,6,9,17,20,23-hexaoxa-12,14-diazapentacosane-1,25-diyl)bis(3-(6,8-dichloro-2-methyl-1,2,3,4-tetrahydroisoquinolin-4-yl)benzenesulfonamide)]
6 to 7 | C/C(=C\c1cc(F)c(Oc2ccc(S(=O)(=O)NCCOCCOCCOCCOCCOCCOCCNC(=O)C(O)C(O)C(=O)NCCOCCOCCOCCOCCOCCOCCNS(=O)(=O)c3ccc(Oc4c(F)cc(/C=C(\C)C(=O)N=C(N)N)cc4F)cc3)cc2)c(F)c1)C(=O)N=C(N)N (stereo not shown) [Example 104, N1,N4-bis(20-(4-(4-((E)-3-(diaminomethyleneamino)-2-methyl-3-oxoprop-1-enyl)-2,6-difluorophenoxy)phenylsulfonamido)-3,6,9,12,15,18-hexaoxaicosyl)-2,3-dihydroxysuccinamide]
6 to 7 | CN1Cc2c(Cl)cc(Cl)cc2C(c2ccc(S(=O)(=O)NCCOCCOCCNC(=O)[C@H](O)[C@@H](O)C(=O)NCCOCCOCCNS(=O)(=O)c3ccc(C4CN(C)Cc5c(Cl)cc(Cl)cc54)cc3)cc2)C1 (stereo partly drawn) [Example 207, (2R,3R)—N1,N4-bis(2-(2-(2-(4-(6,8-dichloro-2-methyl-1,2,3,4-tetrahydroisoquinolin-4-yl)phenylsulfonamido)ethoxy)ethoxy)ethyl)-2,3-dihydroxysuccinamide]
